Columns and labels:
[1] = target: T1, human long isoform of D2 receptor (D2LR) (Homo sapiens, UniProt P14416); assay: Estimation of functional selectivity between Gi and β-arr2 pathways (ratios of Ki, Imax, Imax/Ki); type: cell-based
T1 construct: expressed in transfected cells; host or cells: HEK293T
Text: (§1) Then, for every compound, we calculate the ratios of their K i and I max values for the two pathways.

[2] = target: T1, human long isoform of D2 receptor (D2LR); assay: ebBRET assay of inhibition of dopamine-induced β-arrestin-2 translocation in HEK-293T cells; type: cell-based; conditions: 10 µM dopamine; for Ki: Ki (nM) (95% CI), apparent affinity, IC50 corrected by Cheng–Prusoff, HEK-293T
Text: as §1

[3] = target: T1, human long isoform of D2 receptor (D2LR); assay: BRET assay of Gi activation, agonistic effect at the D2R canonical pathway, in HEK-293T cells; type: cell-based; conditions: BRET signal after 5 min stimulation, decrease = activation
Description: HEK293T cells were cultured in Dulbecco’s modified eagle medium (DMEM) supplemented with 10% fetal bovine serum and 100 U/mL penicillin/streptomycin at 37°C in 5% CO2. Forty-eight hours before the experiments, cells were transfected in suspension, using polyethylenimine (PEI; 25 kDa linear; Polysciences, Warrington, PA, USA) at a ratio of 3:1 PEI/DNA, and directly seeded in 96-well white plates (OptiPlate; PerkinElmer) at a density of 4 × 10^4 cells/well and at 37°C in 5% CO2. When needed, total DNA amount was adjusted with salmon sperm DNA (Invitrogen, Carlsbad, CA, USA).

[4] = target: T1, human long isoform of D2 receptor (D2LR); assay: BRET assay of inhibition of dopamine-induced Gi activation in HEK-293T cells; type: cell-based; conditions: 100 nM dopamine; for Ki: Ki (nM) (95% CI), apparent affinity, IC50 corrected by Cheng–Prusoff, HEK-293T; for I max for inhibition of the dopamine effect on Gi: text summary over 5 and 20 min
Text: as §1

[5] = Solubility limit seen in inhibition curves; type: physicochemical; conditions: complete inhibition curves not obtained in Gi antagonism assay

T1 sequence (P14416 whole entry, canonical isoform): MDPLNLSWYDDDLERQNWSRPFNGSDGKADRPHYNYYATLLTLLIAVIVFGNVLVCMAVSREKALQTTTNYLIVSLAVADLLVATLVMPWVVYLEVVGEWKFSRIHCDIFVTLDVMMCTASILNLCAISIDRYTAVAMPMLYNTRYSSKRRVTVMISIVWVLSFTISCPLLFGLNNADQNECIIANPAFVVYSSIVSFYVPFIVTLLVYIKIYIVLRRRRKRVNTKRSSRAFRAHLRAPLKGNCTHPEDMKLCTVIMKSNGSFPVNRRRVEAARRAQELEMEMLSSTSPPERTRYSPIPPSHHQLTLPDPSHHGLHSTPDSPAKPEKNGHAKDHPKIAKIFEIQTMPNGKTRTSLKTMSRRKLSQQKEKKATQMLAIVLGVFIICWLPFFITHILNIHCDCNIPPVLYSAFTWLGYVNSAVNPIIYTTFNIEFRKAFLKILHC

| Structure (SMILES) | Imax (Gi)/Imax (β-arr) ([1]; 5 min) | Ki (Gi)/Ki (β-arr) ([1]; 5 min) | Imax (Gi)/Imax (β-arr) ([1]; 20 min) | Ki (Gi)/Ki (β-arr) ([1]; 20 min) | I max (% dopamine effect) ± S.E.M., 5 min β-arr ([2]; 5 min) [% dopamine effect] | I max (% dopamine effect) ± S.E.M., 20 min β-arr ([2]; 20 min) [% dopamine effect] | Ki ([2]; 5 min β-arr, 5 min) [nM] | Ki ([2]; 20 min β-arr, 20 min) [nM] | E max for Gi activation (change in BRET signal) [3] | I max (% dopamine effect) ± S.E.M., 5 min Gi ([4]; 5 min) [% dopamine effect] | I max (% dopamine effect) ± S.E.M., 20 min Gi ([4]; 20 min) [% dopamine effect] | Ki ([4]; 5 min Gi, 5 min) [nM] | Ki ([4]; 20 min Gi, 20 min) [nM] | I max for inhibition of the dopamine effect on Gi [4] | Solubility [5] |
| --- | --- | --- | --- | --- | --- | --- | --- | --- | --- | --- | --- | --- | --- | --- | --- |
| Clc1ccc(-n2cc(CN3CCN(c4ccccc4)CC3)cn2)cc1 [LASSBio-579, 1-((1-(4-chlorophenyl)-1H-pyrazol-4-yl)methyl)-4-phenylpiperazine] | 0.51 | 1.08 | 0.56 | 1.60 | 148 ± 20 | 129 ± 12 | 109 | 41.6 | −0.07 | 75.1 ± 16.3 | 72.4 ± 9.8 | 118 | 66.7 | 70–80% | lack of solubility at higher concentrations |
| Oc1ccc(N2CCN(Cc3cnn(-c4ccc(Cl)cc4)c3)CC2)cc1 [LQFM 037] | 1.11 | 0.74 | 0.76 | 0.91 | 71.3 ± 12.3 | 94.2 ± 7.4 | 353 | 209 | −0.04 | 78.9 ± 19.2 | 71.6 ± 13.7 | 263 | 190 | 70–80% | lack of solubility at higher concentrations |
